In test [1] the test system is Acinetobacter baumannii. As to the kind of experiment: Sensitization of clarithromycin-induced antimicrobial activity against Acinetobacter baumannii OXA infected in mouse skin infection model assessed as reduction in skin ulcer at 7.5 mg/kg, sc TID for 5 days co-treated with 20 ug/kg, sc clarithromycin. It is filed as functional, organism-based. The following applies: time 5.0 day.

For test [2], the system named is Cell membrane. The experiment in a line: Induction of outer membrane re-arragenemnts in Escherichia coli D21f2 incubated for 4 mins by NPN uptake assay. The format is subcellular.
Test [3] concerns Escherichia coli. As to the kind of experiment: Sensitization of rifampicin-induced induction of cell killing in Escherichia coli assessed as time needed for bacterial destruction at 8 ug/ml. The note with it: dose 8 µg/ml. The format is functional.
The subject of test [4] is Staphylococcus aureus. As to the kind of experiment: Sensitization of rifampicin-induced antimicrobial activity against methicillin-resistant Staphylococcus aureus assessed as inhibition of bacterial growth at 8 ug/ml incubated for 18 hrs by CLSI based method. The format is functional, organism-based. The following applies: dose 8.0 µg/ml.
Test [5] relates to Lipopolysaccharide (LPS). The experiment in a line: Binding affinity to LPS in Escherichia coli D21f2 assessed as localization in membrane regions at 1 uM using TAMRA-labeled compound by confocal fluorescence microscopy.
The subject of test [6] is Pseudomonas aeruginosa. As to the kind of experiment: Sensitization of colistin-induced antimicrobial activity against multidrug-resistant Pseudomonas aeruginosa infected in ICR CD1 mouse model of sepsis protection model assessed as increase in mouse survival at 25 mg/kg, sc QD for 1 days co-treated with 40 mg/kg, sc QD colistin. The format is functional. The following applies: time 1 day.

For test [7], the system named is Escherichia coli. As to the kind of experiment: Sensitization of linezolid-induced antimicrobial activity against Escherichia coli ATCC 25922 infected in ICR CD1 mouse neutropenic thigh infection model assessed as reduction in bacterial CFU at 150 mg/kg, ip q2h x 4 hrs co-treated with 150 mg/kg, sc q2h x 4 hrs linezolid. It is filed as functional, organism-based.

For test [8], the system named is Staphylococcus aureus. The experiment in a line: Antimicrobial activity against Staphylococcus aureus ATCC 29213 assessed as inhibition of bacterial growth incubated for 18 hrs by CLSI based method. The format is functional.
For test [9], the system named is Escherichia coli. As to the kind of experiment: Antimicrobial activity against Escherichia coli ATCC 25922 assessed as inhibition of bacterial growth incubated for 18 hrs by CLSI based method. It is filed as functional.
For test [10], the system named is Escherichia coli. As to the kind of experiment: Binding affinity to inner membrane using POPE/POPG (7/3) by SPR assay. On the technique in general: In SPR one partner is held on a chip, and binding of the other changes the refractive index at the surface.
In test [11] the test system is Cell membrane. The experiment in a line: Induction of outer membrane re-arragenemnts in Escherichia coli ATCC 25922 incubated for 4 mins by NPN uptake assay. The format is subcellular.
Test [12] relates to Cell membrane. As to the kind of experiment: Induction of membrane permeability in Escherichia coli assessed as increase in fine surface roughness at 25 uM by atomic force microscopy. It is filed as subcellular.
The subject of test [13] is Lipopolysaccharide (LPS). The experiment in a line: Binding affinity to LPS in Escherichia coli D21f1 assessed as localization in membrane regions at 1 uM using TAMRA-labeled compound by confocal fluorescence microscopy.

The source made the active and inactive calls. No cut-off for these calls is given here.

One may read the MIC as the lowest concentration found to suppress growth.

Take Ac-KLLKLLKKPLKLLK-NH2: the outcome in [1], in test [4], in test [5], in test [7], in test [10] and in test [11] was Active. Moreover, the outcome in [12] and in test [13] was Active. Besides, the outcome in test [2] was inactive. Also, the Time in test [3] stood at 8 h. Moreover, the Activity in [6] was 75%. Also, the MIC in test [8] and in test [9] was greater than 80 µM throughout.

The record behind these values is ChEMBL document CHEMBL4699652, “Proline Hinged Amphipathic α-Helical Peptide Sensitizes Gram-Negative Bacteria to Various Gram-Positive Antibiotics” (J Med Chem, 2020).
